Experimental data taken from patent US10377753B2, “Substituted 4-azaindoles and their use as GluN2B receptor modulators” (Janssen Pharmaceutica NV, priority 2015, dated 2019).
pIC50: −log10 of the molar value. Where a name gives a salt, the structure may show the parent alone.

Target: cloned human NR1/NR2B ion channels (Homo sapiens (Human), UniProt Q05586+Q13224)
Experiment: HNR2BC: effects of test articles on cloned human NR1/NR2B ion channels expressed in mammalian cells (FLIPR calcium flux)
Format: cell-based
Details: cloned human NR1/NR2B, Table 5
Method in brief: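 In a stable Tet-On-induced cell line expressing human GluN1/GluN2B, Calcium 5-loaded cells were preincubated 5 min with compound, then stimulated 5 min with glutamate at ~EC80 plus 10 μM glycine, in pH 7.4 HEPES buffer. FLIPR calcium fluorescence was normalized to control wells.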

Sequence of cloned human NR1/NR2B ion channels (Q13224 27-1484, other chains not shown): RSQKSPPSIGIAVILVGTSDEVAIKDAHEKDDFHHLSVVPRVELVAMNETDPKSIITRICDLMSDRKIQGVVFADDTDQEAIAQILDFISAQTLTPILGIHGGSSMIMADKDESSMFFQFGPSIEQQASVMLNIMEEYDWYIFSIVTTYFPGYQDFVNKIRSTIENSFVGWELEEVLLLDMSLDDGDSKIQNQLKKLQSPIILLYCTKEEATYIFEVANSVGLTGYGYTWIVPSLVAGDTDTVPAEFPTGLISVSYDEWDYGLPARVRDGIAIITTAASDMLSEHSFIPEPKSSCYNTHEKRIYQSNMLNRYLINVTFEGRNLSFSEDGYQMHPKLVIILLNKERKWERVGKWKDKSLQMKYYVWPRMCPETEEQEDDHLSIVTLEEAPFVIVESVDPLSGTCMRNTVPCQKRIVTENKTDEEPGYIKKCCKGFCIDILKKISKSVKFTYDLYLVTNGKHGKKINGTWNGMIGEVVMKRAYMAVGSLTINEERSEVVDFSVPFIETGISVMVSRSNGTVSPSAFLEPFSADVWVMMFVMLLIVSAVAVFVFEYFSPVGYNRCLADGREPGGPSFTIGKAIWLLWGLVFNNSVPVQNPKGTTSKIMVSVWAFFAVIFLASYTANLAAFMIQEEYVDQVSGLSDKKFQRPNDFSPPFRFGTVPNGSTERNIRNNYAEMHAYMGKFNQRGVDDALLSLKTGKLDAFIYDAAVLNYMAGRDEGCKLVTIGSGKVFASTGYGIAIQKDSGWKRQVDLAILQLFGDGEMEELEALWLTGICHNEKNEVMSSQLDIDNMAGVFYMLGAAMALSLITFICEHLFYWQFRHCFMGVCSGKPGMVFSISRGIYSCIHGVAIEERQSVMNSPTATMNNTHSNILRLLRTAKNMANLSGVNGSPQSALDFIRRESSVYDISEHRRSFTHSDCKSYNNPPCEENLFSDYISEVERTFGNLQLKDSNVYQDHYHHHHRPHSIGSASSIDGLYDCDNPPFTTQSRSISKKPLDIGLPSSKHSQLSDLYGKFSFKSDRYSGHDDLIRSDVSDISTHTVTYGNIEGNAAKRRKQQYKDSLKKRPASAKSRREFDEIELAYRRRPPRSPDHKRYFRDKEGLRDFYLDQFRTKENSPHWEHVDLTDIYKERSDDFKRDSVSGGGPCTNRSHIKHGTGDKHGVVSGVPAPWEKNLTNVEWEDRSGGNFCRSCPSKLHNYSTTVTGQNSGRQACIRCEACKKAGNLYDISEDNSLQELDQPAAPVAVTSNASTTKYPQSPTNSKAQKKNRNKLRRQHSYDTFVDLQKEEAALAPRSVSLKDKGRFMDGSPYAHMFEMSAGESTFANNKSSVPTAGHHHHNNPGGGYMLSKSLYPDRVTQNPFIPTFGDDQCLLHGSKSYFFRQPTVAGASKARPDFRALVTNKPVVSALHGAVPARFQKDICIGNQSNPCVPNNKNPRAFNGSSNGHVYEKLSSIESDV

pIC50	Structure (SMILES)
6.40	O=C(Cn1cc(F)c2ncc(-c3cc(F)c(F)c(F)c3)cc21)N1CC(F)C1 [Example 306, 1-(3-Fluoroazetidin-1-yl)-2-[3-fluoro-6-(3,4,5-trifluorophenyl)pyrrolo[3,2-b]pyridin-1-yl]ethanone]
7.40	Cc1cc(-c2cnc3c(F)cn(CC(=O)N4CC(F)C4)c3c2)ccc1F [Example 307, 1-(3-Fluoroazetidin-1-yl)-2-[3-fluoro-6-(4-fluoro-3-methyl-phenyl)pyrrolo[3,2-b]pyridin-1-yl]ethanone]
7.20	O=C(Cn1cc(F)c2ncc(-c3ccc(F)cc3)cc21)N1CC(F)C1 [Example 308, 1-(3-Fluoroazetidin-1-yl)-2-[3-fluoro-6-(4-fluorophenyl)pyrrolo[3,2-b]pyridin-1-yl]ethanone]
6.70	Cc1csc(-c2cnc3c(F)cn(CC(=O)N4CC(F)C4)c3c2)c1 [Example 309, 1-(3-Fluoroazetidin-1-yl)-2-[3-fluoro-6-(4-methyl-2-thienyl)pyrrolo[3,2-b]pyridin-1-yl]ethanone]
7.30	O=C(Cn1cc(F)c2ncc(-c3cccc(C(F)F)c3)cc21)N1CC(F)C1 [Example 310, 2-[6-[3-(Difluoromethyl)phenyl]-3-fluoro-pyrrolo[3,2-b]pyridin-1-yl]-1-(3-fluoroazetidin-1-yl)ethanone]
7.20	O=C(Cn1cc(F)c2ncc(-c3ccc(F)c(F)c3)cc21)N1CC(F)C1 [Example 311, 2-[6-(3,4-Difluorophenyl)-3-fluoro-pyrrolo[3,2-b]pyridin-1-yl]-1-(3-fluoroazetidin-1-yl)ethanone]
6.80	O=C(Cn1cc(Cl)c2ncc(-c3ccc(F)c(F)c3F)cc21)N1CCC1 [Example 312, 1-(Azetidin-1-yl)-2-[3-chloro-6-(2,3,4-trifluorophenyl)pyrrolo[3,2-b]pyridin-1-yl]ethanone]
7.70	Cc1cc(-c2cnc3c(F)cn(CC(=O)N4CCCC4)c3c2)ccc1F [Example 313, 2-[3-Fluoro-6-(4-fluoro-3-methyl-phenyl)pyrrolo[3,2-b]pyridin-1-yl]-1-pyrrolidin-1-yl-ethanone]
7.20	O=C(Cn1cc(F)c2ncc(-c3ccc(F)cc3)cc21)N1CCCC1 [Example 314, 2-[3-Fluoro-6-(4-fluorophenyl)pyrrolo[3,2-b]pyridin-1-yl]-1-pyrrolidin-1-yl-ethanone]
7.10	O=C(Cn1cc(F)c2ncc(-c3cc(F)c(F)c(F)c3)cc21)N1CCCC1 [Example 315, 2-[3-Fluoro-6-(3,4,5-trifluorophenyl)pyrrolo[3,2-b]pyridin-1-yl]-1-pyrrolidin-1-yl-ethanone]
7.40	Cc1cc(-c2cnc3c(F)cn(CC(=O)C4CC4)c3c2)ccc1F [Example 316, 1-Cyclopropyl-2-[3-fluoro-6-(4-fluoro-3-methyl-phenyl)pyrrolo[3,2-b]pyridin-1-yl]ethanone]
7.40	Cc1csc(-c2cnc3c(F)cn(CC(=O)C4CC4)c3c2)c1 [Example 317, 1-Cyclopropyl-2-[3-fluoro-6-(4-methyl-2-thienyl)pyrrolo[3,2-b]pyridin-1-yl]ethanone]
7.70	O=C(Cn1cc(F)c2ncc(-c3ccc(Cl)s3)cc21)C1CC1 [Example 318, 2-[6-(5-Chloro-2-thienyl)-3-fluoro-pyrrolo[3,2-b]pyridin-1-yl]-1-cyclopropyl-ethanone]
7.70	O=C(Cn1cc(F)c2ncc(-c3ccc(F)cc3)cc21)C1CC1 [Example 319, 1-Cyclopropyl-2-[3-fluoro-6-(4-fluorophenyl)pyrrolo[3,2-b]pyridin-1-yl]ethanone]
7.50	O=C(Cn1cc(F)c2ncc(-c3cc(F)c(F)c(F)c3)cc21)C1CC1 [Example 320, 1-Cyclopropyl-2-[3-fluoro-6-(3,4,5-trifluorophenyl)pyrrolo[3,2-b]pyridin-1-yl]ethanone]
7.70	O=C(Cn1cc(F)c2ncc(-c3cccc(C(F)F)c3)cc21)C1CC1 [Example 321, 1-Cyclopropyl-2-[6-[3-(difluoromethyl)phenyl]-3-fluoro-pyrrolo[3,2-b]pyridin-1-yl]ethanone]
7.70	Cc1csc(-c2cnc3c(F)cn(CC(=O)N4CCC4)c3c2)c1 [Example 322, 1-(Azetidin-1-yl)-2-[3-fluoro-6-(4-methyl-2-thienyl)pyrrolo[3,2-b]pyridin-1-yl]ethanone]
7.00	O=C(Cn1cc(F)c2ncc(-c3cccc(C(F)F)c3)cc21)N1CCC1 [Example 323, 1-(Azetidin-1-yl)-2-[6-[3-(difluoromethyl)phenyl]-3-fluoro-pyrrolo[3,2-b]pyridin-1-yl]ethanone]
7.00	Cc1cc(-c2cnc3c(F)cn(CC(=O)C(C)C)c3c2)ccc1F [Example 324, 1-[3-Fluoro-6-(4-fluoro-3-methyl-phenyl)pyrrolo[3,2-b]pyridin-1-yl]-3-methyl-butan-2-one]
6.70	CCc1cccc(-c2cnc3c(F)cn(CC(=O)C(C)C)c3c2)c1 [Example 325, 1-[6-(3-Ethylphenyl)-3-fluoro-pyrrolo[3,2-b]pyridin-1-yl]-3-methyl-butan-2-one]
6.70	CC(C)C(=O)Cn1cc(F)c2ncc(-c3ccc(F)c(F)c3)cc21 [Example 326, 1-[6-(3,4-Difluorophenyl)-3-fluoro-pyrrolo[3,2-b]pyridin-1-yl]-3-methyl-butan-2-one]
7.20	CC(C)C(=O)Cn1cc(F)c2ncc(-c3cccc(F)c3)cc21 [Example 327, 1-[3-Fluoro-6-(3-fluorophenyl)pyrrolo[3,2-b]pyridin-1-yl]-3-methyl-butan-2-one]

The remaining lines, values behind:

Structure (SMILES)	pIC50
Cc1cc(-c2cnc3ccn(C/C(=N/O)C4CC4)c3c2)ccc1F [Example 286, 1-Cyclopropyl-2-[6-(4-fluoro-3-methyl-phenyl)pyrrolo[3,2-b]pyridin-1-yl]ethanone oxime trifluoroacetate salt]	6.80
O=C(Cn1ccc2ncc(-c3ccc(Cl)s3)cc21)N1CCCC1 [Example 287, 2-[6-(5-Chloro-2-thienyl)pyrrolo[3,2-b]pyridin-1-yl]-1-pyrrolidin-1-yl-ethanone]	6.20
O=C(Cn1ccc2ncc(-c3cc(Cl)cs3)cc21)N1CCCC1 [Example 288, 2-[6-(4-Chloro-2-thienyl)pyrrolo[3,2-b]pyridin-1-yl]-1-pyrrolidin-1-yl-ethanone]	7.70
COC1CN(C(=O)Cn2ccc3ncc(-c4ccc(F)c(C)c4)cc32)C1 [Example 290, 2-[6-(4-Fluoro-3-methyl-phenyl)pyrrolo[3,2-b]pyridin-1-yl]-1-(3-methoxyazetidin-1-yl)ethanone]	6.20
COCCn1ccc2ncc(-c3ccc(F)c(C)c3)cc21 [Example 291, 6-(4-Fluoro-3-methyl-phenyl)-1-(2-methoxyethyl)pyrrolo[3,2-b]pyridine trifluoroacetate salt]	7.10
O=C(Cn1ccc2ncc(-c3cccc(F)c3)cc21)C1CCC1 [Example 292, 1-Cyclobutyl-2-[6-(3-fluorophenyl)pyrrolo[3,2-b]pyridin-1-yl]ethanone]	5.90
O=C(Cn1ccc2ncc(-c3ccc(F)cc3)cc21)N1CC[C@H](F)C1 [Example 294, 2-[6-(4-Fluorophenyl)pyrrolo[3,2-b]pyridin-1-yl]-1-[(3S)-3-fluoropyrrolidin-1-yl]ethanone trifluoroacetate salt]	6.50
CCC(=O)Cn1ccc2ncc(-c3ccc(F)c(C)c3)cc21 [Example 295, 1-[6-(4-Fluoro-3-methyl-phenyl)pyrrolo[3,2-b]pyridin-1-yl]butan-2-one trifluoroacetate salt]	6.50
CCN(C)C(=O)Cn1ccc2ncc(-c3ccc(F)c(C)c3)cc21 [Example 296, N-Ethyl-2-[6-(4-fluoro-3-methyl-phenyl)pyrrolo[3,2-b]pyridin-1-yl]-N-methyl-acetamide]	7.60
CCN(CC)C(=O)Cn1ccc2ncc(-c3ccc(F)c(C)c3)cc21 [Example 297, N,N-Diethyl-2-[6-(4-fluoro-3-methyl-phenyl)pyrrolo[3,2-b]pyridin-1-yl]acetamide]	7.40
O=C(Cn1cc(Cl)c2ncc(-c3cccc(C(F)(F)F)c3)cc21)N1CCC1 [Example 298, 1-(Azetidin-1-yl)-2-[3-chloro-6-[3-(trifluoromethyl)phenyl]pyrrolo[3,2-b]pyridin-1-yl]ethanone]	6.30
Cc1cccc(-c2cnc3c(Cl)cn(CC(=O)C4CC4)c3c2)c1 [Example 299, 2-[3-Chloro-6-(m-tolyl)pyrrolo[3,2-b]pyridin-1-yl]-1-cyclopropyl-ethanone]	7.30
O=C(Cn1cc(Cl)c2ncc(-c3ccccc3)cc21)C1CC1 [Example 300, 2-(3-Chloro-6-phenyl-pyrrolo[3,2-b]pyridin-1-yl)-1-cyclopropyl-ethanone]	7.70
O=C(Cn1cc(Cl)c2ncc(-c3cc(F)c(F)c(F)c3)cc21)N1CCC1 [Example 301, 1-(Azetidin-1-yl)-2-[3-chloro-6-(3,4,5-trifluorophenyl)pyrrolo[3,2-b]pyridin-1-yl]ethanone]	7.70
O=C(Cn1cc(F)c2ncc(-c3ccc(F)cc3)cc21)N1CCC1 [Example 302, 1-(Azetidin-1-yl)-2-[3-fluoro-6-(4-fluorophenyl)pyrrolo[3,2-b]pyridin-1-yl]ethanone]	7.50
Cc1cc(C)cc(-c2cnc3c(Cl)cn(CC(=O)N4CCC4)c3c2)c1 [Example 303, 1-(Azetidin-1-yl)-2-[3-chloro-6-(3,5-dimethylphenyl)pyrrolo[3,2-b]pyridin-1-yl]ethanone]	7.40
Cc1cc(-c2cnc3c(F)cn(CC(=O)N4CCOCC4)c3c2)ccc1F [Example 304, 2-[3-Fluoro-6-(4-fluoro-3-methyl-phenyl)pyrrolo[3,2-b]pyridin-1-yl]-1-morpholino-ethanone]	6.80
O=C(Cn1cc(F)c2ncc(-c3ccc(F)cc3)cc21)N1CCOCC1 [Example 305, 2-[3-Fluoro-6-(4-fluorophenyl)pyrrolo[3,2-b]pyridin-1-yl]-1-morpholino-ethanone]	7.10
